Test results: patent publication US20130029961A1, “Substituted Heterocyclic Aza Compounds” (Gruenenthal GmbH, priority 2011, published 2013)

Biological target: T1, TRPV1 human (Homo sapiens, UniProt Q8NER1)
T1 construct: expressed in transfected cells; host or cells: CHO K1 cells
Test: Functional FLIPR Ca2+ influx assay on vanilloid receptor 1 (VR1/TRPV1), capsaicin stimulus
Assay type: cell-based
Design: key to TRPV1 human (f) CAP, agonist (AG): AG denotes agonist
Conditions: for Ki: functional (f), vs capsaicin (CAP), Ki from IC50 by Cheng-Prusoff; for inhibition at 5 µM: read-out: TRPV1 human (f) CAP, inhibition (as a percentage) @ 5 μM; for TRPV1 human (f) CAP, agonist (AG): printed in the Ki column instead of a value

[1] = inhibition at 5 μM compound, capsaicin (CAP)

T1 sequence (Q8NER1 whole entry): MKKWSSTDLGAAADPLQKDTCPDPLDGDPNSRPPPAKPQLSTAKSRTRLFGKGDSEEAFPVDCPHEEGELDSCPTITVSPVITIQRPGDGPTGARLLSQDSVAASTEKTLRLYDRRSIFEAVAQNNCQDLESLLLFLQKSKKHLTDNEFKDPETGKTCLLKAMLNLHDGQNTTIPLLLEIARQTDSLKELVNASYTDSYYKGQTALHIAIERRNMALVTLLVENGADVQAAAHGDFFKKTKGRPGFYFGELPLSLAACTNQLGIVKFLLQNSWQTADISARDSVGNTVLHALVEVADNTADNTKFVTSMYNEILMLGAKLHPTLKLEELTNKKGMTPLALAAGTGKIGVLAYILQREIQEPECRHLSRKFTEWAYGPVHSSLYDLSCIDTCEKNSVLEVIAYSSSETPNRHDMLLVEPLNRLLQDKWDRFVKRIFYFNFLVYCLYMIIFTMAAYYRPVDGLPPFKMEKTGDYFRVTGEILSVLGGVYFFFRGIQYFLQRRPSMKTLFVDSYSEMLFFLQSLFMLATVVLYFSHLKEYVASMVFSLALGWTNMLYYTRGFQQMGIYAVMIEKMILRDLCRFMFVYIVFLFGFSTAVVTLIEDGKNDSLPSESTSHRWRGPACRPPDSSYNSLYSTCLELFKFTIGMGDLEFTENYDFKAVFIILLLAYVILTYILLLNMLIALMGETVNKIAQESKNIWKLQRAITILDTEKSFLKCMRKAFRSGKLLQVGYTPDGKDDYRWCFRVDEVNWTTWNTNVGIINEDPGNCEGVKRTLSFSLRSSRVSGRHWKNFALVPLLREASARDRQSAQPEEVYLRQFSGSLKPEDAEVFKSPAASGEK

Row | Structure (SMILES) | Ki | further results
1 | O=C(Cc1ccccn1)NCc1ccc(C(F)(F)F)nc1-c1cccc(Cl)c1 [compound 5] | 91 nM | –
2 | O=C(Cc1ccccn1)NCc1ccc(C(F)(F)F)nc1-c1ccc(F)c(Cl)c1 [compound 6] | – | TRPV1 human (f) CAP, inhibition (as a percentage) @ 5 μM [1]: 48% @ 5 μM
3 | Cc1cccc(-c2nc(C(F)(F)F)ccc2CNC(=O)Cc2ccccn2)c1 [compound 7] | – | inhibition at 5 µM [1]: 18%
4 | COc1cccc(-c2nc(C(F)(F)F)ccc2CNC(=O)Cc2ccccn2)c1 [compound 8] | – | inhibition at 5 µM [1]: 39%
5 | CCCCNc1nc(C(F)(F)F)ccc1CNC(=O)Cc1ccccn1 [compound 9] | – | inhibition at 5 µM [1]: 23%
6 | O=C(Cc1ccccn1)NCc1ccc(C(F)(F)F)nc1N1CCCC1 [compound 10] | 73 nM | –
7 | CC1CCN(c2nc(C(F)(F)F)ccc2CNC(=O)Cc2ccccn2)CC1 [compound 13] | 7 nM | –
8 | CC1CCN(c2nc(C(F)(F)F)ccc2CNC(=O)C(C)c2ccccn2)CC1 (stereo not drawn) [compound 14] | 45 nM | –
9 | CC1CCN(c2nc(C(F)(F)F)ccc2CNC(=O)Nc2ccccn2)CC1 [compound 19] | 35 nM | –
10 | O=C(Cc1ccccn1)NCc1ccc(C(F)(F)F)nc1N1CCOCC1 [compound 22] | – | inhibition at 5 µM [1]: 32%
11 | COCCOCc1nc(C(F)(F)F)ccc1CNC(=O)Cc1ccccn1 [compound 24] | – | inhibition at 5 µM [1]: 13%
12 | CC1CCN(c2nc(C(F)(F)F)ccc2CNC(=O)Cc2cccnc2)CC1 [compound 31] | 6 nM | –
13 | CC1CCN(c2nc(C(F)(F)F)ccc2CNC(=O)C(C)c2cccnc2)CC1 (stereo not drawn) [compound 32] | 10 nM | –
14 | CC1CCN(c2nc(C(F)(F)F)ccc2CNC(=O)Cc2ccncc2)CC1 [compound 38] | – | TRPV1 human (f) CAP, agonist (AG): AG
15 | CC1CCN(c2nc(C(F)(F)F)ccc2CNC(=O)Cc2ccncn2)CC1 [compound 39] | 11 nM | –
16 | CC1CCN(c2nc(C(F)(F)F)ccc2CNC(=O)Cc2cnccn2)CC1 [compound 40] | 107 nM | –
17 | CC1CCN(c2nc(C(F)(F)F)ccc2CNC(=O)Cc2ncccn2)CC1 [compound 41] | – | inhibition at 5 µM [1]: 39%
18 | CC1CCN(c2nc(C(F)(F)F)ccc2CNC(=O)Nc2ccnnc2)CC1 [compound 42] | 9 nM | –
19 | CC1CCN(c2nc(C(F)(F)F)ccc2CNC(=O)Cc2cncnc2)CC1 [compound 47] | 38 nM | –
20 | CC1CCN(c2nc(C(F)(F)F)ccc2CNC(=O)C(C)c2ccc(Cl)nc2)CC1 (stereo not drawn) [compound 49] | – | TRPV1 human (f) CAP, agonist (AG): AG

Row | Structure (SMILES) | Ki | further results
21 | CC1CCN(c2nc(C(F)(F)F)ccc2CNC(=O)Nc2ccc(CO)nc2)CC1 [compound 55] | 11 nM | –
22 | CC1CCN(c2nc(C(F)(F)F)ccc2CNC(=O)Nc2cnc(CCS(C)(=O)=O)c(F)c2)CC1 [compound 67] | 6 nM | –
23 | CC1CCN(c2nc(C(F)(F)F)ccc2CNC(=O)C(C)c2ccc(C(N)=O)nc2)CC1 (stereo not drawn) [compound 74] | – | TRPV1 human (f) CAP, agonist (AG): AG
24 | CC1CCN(c2nc(C(F)(F)F)ccc2CNC(=O)C(C)c2ccc(C(=O)Nc3ccccc3)nc2)CC1 (stereo not drawn) [compound 75] | 57 nM | –
25 | CC1CCN(c2nc(C(F)(F)F)ccc2CNC(=O)C(C)c2cnc(C(=O)Nc3ccccc3)nc2)CC1 (stereo not drawn) [compound 76] | 77 nM | –
26 | CCNc1nc(C(F)(F)F)ccc1CNC(=O)C(C)c1cnc(C(=O)Nc2ccc(F)cc2)nc1 (stereo not drawn) [compound 77] | 80 nM | –
27 | CC(C(=O)NCc1ccc(C(F)(F)F)nc1N1CCCC1)c1cnc(C(=O)Nc2ccc(F)cc2)nc1 (stereo not drawn) [compound 78] | 42 nM | –
28 | CC(C(=O)NCc1ccc(C(F)(F)F)nc1N1CCCCC1)c1cnc(C(=O)Nc2ccc(F)cc2)nc1 (stereo not drawn) [compound 79] | 11 nM | –
29 | CC(C(=O)NCc1ccc(C(F)(F)F)nc1N1CCOCC1)c1cnc(C(=O)Nc2ccc(F)cc2)nc1 (stereo not drawn) [compound 80] | 60 nM | –
30 | Cc1cccc(-c2nc(C(F)(F)F)ccc2CNC(=O)C(C)c2cnc(C(=O)Nc3ccc(F)cc3)nc2)c1 (stereo not drawn) [compound 81] | 5 nM | –
31 | CC1CCN(c2nc(C(F)(F)F)ccc2CNC(=O)C(C)c2ccc(N)c(Br)n2)CC1 (stereo not drawn) [compound 84] | 50 nM | –
32 | CC1CCN(c2nc(C(F)(F)F)ccc2CNC(=O)C(C)c2ccc(NCCO)nc2)CC1 (stereo not drawn) [compound 85] | 2 nM | –
33 | CC1CCN(c2nc(C(F)(F)F)ccc2CNC(=O)Nc2ccc(NCCO)nc2)CC1 [compound 86] | 1 nM | –
34 | COCCNc1ccc(C(C)C(=O)NCc2ccc(C(F)(F)F)nc2N2CCC(C)CC2)cn1 (stereo not drawn) [compound 87] | 27 nM | –
35 | COCCNc1ccc(NC(=O)NCc2ccc(C(F)(F)F)nc2N2CCC(C)CC2)cn1 [compound 88] | 16 nM | –
36 | CC1CCN(c2nc(C(F)(F)F)ccc2CNC(=O)C(C)c2ccc(N(C)CCO)nc2)CC1 (stereo not drawn) [compound 89] | 53 nM | –
37 | CC1CCN(c2nc(C(F)(F)F)ccc2CNC(=O)Nc2ccc(N(C)CCO)nc2)CC1 [compound 90] | 19 nM | –
38 | COCCN(C)c1ccc(NC(=O)NCc2ccc(C(F)(F)F)nc2N2CCC(C)CC2)cn1 [compound 91] | – | TRPV1 human (f) CAP, inhibition (as a percentage) @ 1 μM (inhibition at 1 μM compound, capsaicin (CAP)): 12% @ 1 μM
39 | CC(C(=O)NCc1ccc(C(F)(F)F)nc1N1CCOCC1)c1ccc(NS(C)(=O)=O)nc1 (stereo not drawn) [compound 95] | – | inhibition at 5 µM [1]: 34%
40 | CC1CCN(c2nc(C(F)(F)F)ccc2CNC(=O)C(C)c2cnc(NS(C)(=O)=O)c(F)c2)CC1 (stereo not drawn) [compound 96] | 1 nM | –

Row | Structure (SMILES) | Ki | further results
41 | COc1cc(C(C)C(=O)NCc2ccc(C(F)(F)F)nc2N2CCC(C)CC2)cnc1NS(C)(=O)=O (stereo not drawn) [compound 97] | 2 nM | –
42 | CC1CCN(c2nc(C(F)(F)F)ccc2CNC(=O)C(C)c2ccc(NC(=O)c3ccccc3)nc2)CC1 (stereo not drawn) [compound 98] | 63 nM | –
43 | CC1CCN(c2nc(C(F)(F)F)ccc2CNC(=O)C(C)c2ccc(NC(=O)c3ccc(Cl)cc3)nc2)CC1 (stereo not drawn) [compound 99] | 9 nM | –
44 | CC1CCN(c2nc(C(F)(F)F)ccc2CNC(=O)Nc2cnc(N(C)C)c(C(F)(F)F)c2)CC1 [compound 104] | 9 nM | –
45 | CC1CCN(c2nc(C(F)(F)F)ccc2CNC(=O)Nc2ccc(N3CCC3)nc2)CC1 [compound 105] | 27 nM | –
46 | COc1cc(NC(=O)NCc2ccc(C(F)(F)F)nc2N2CCC(C)CC2)cnc1N1CCC1 [compound 107] | 81 nM | –
47 | CC1CCN(c2nc(C(F)(F)F)ccc2CNC(=O)Nc2ccc(N3CC(O)C3)nc2)CC1 [compound 108] | 12 nM | –
48 | CC1CCN(c2nc(C(F)(F)F)ccc2CNC(=O)Nc2ccc(N3CCCC3)nc2)CC1 [compound 114] | 12 nM | –
49 | COc1cc(NC(=O)NCc2ccc(C(F)(F)F)nc2N2CCC(C)CC2)cnc1N1CCCC1 [compound 116] | 78 nM | –
50 | CC1CCN(c2nc(C(F)(F)F)ccc2CNC(=O)Nc2ccc(N3CC[C@H](O)C3)nc2)CC1 [compound 117] | 9 nM | –
51 | CC1CCN(c2nc(C(F)(F)F)ccc2CNC(=O)Nc2ccc(N3CC[C@@H](O)C3)nc2)CC1 [compound 118] | 10 nM | –
52 | COc1ccc(C(C)C(=O)NCc2ccc(C(F)(F)F)nc2N2CCC(C)CC2)cn1 (stereo not drawn) [compound 120] | 44 nM | –
53 | CC1CCN(c2nc(C(F)(F)F)ccc2CNC(=O)Nc2ccc(OCCO)nc2)CC1 [compound 123] | 11 nM | –
54 | COCCOc1ccc(NC(=O)NCc2ccc(C(F)(F)F)nc2N2CCC(C)CC2)cn1 [compound 124] | 4 nM | –
55 | CC1CCN(c2nc(C(F)(F)F)ccc2CNC(=O)Nc2cncc(CO)c2)CC1 [compound 126] | 26 nM | –
56 | CC1CCN(c2nc(C(F)(F)F)ccc2CNC(=O)Nc2ccc(CO)cn2)CC1 [compound 127] | 61 nM | –
57 | CC1CCN(c2nc(C(F)(F)F)ccc2CNC(=O)Nc2ccncc2CO)CC1 [compound 128] | 69 nM | –
58 | CC1CCN(c2nc(C(F)(F)F)ccc2CNC(=O)Nc2ccc(C(O)CO)nc2)CC1 (stereo not drawn) [compound 129] | 39 nM | –
59 | O=C(NCc1ccc(C(F)(F)F)nc1-c1cccc(F)c1)Nc1ccc(NCCO)nc1 [compound 130] | 15 nM | –
60 | O=C(NCc1ccc(C(F)(F)F)nc1-c1cncc(Cl)c1)Nc1ccc(NCCO)nc1 [compound 131] | 29 nM | –
